Assay results taken from publication PMC2362650, “Phase I and pharmacokinetic study of the topoisomerase II catalytic inhibitor fostriecin” (British Journal of Cancer, 1999).

Key:
[1] = test system: murine leukaemia L1210; design: method as in Leopold et al, 1984; details: ref Leopold et al, 1984; cited from earlier work
[2] = test system: GLC4/VM20x; design: method as in Withoff et al, 1996; details: ref Withoff et al, 1996; cited from earlier work
[3] = test system: GLC4/VM20x; assay: Microtiterwell tetrazolium growth-inhibition assay, medium with 40% pooled human plasma; type: cell-based; details: GLC4, 96 h; 4 days; medium with 40% human plasma; 95% CI 5.3-6.5
Description: Fostriecin (CI-920) is a topoisomerase (topo) II catalytic activity inhibitor (Boritzki et al, 1988) (Figure 1). This novel class of topo II-targeting drugs is considered of potential value for treatment of patients with tumours resistant to classic topo II poisons, including anthracyclines and podophyllotoxins (Cummings and Smyth, 1993). The nuclear enzyme topo II is essential for the regulation of DNA conformation (reviewed in Osheroff et al, 1991). Central in its action is the formation of a complex with DNA. Stabilization of this complex by topo II poisons induces DNA damage and cell death (Froelich-Ammon and Osheroff, 1995). Decreased complex formation due to decreased topo II levels is considered to be an important mechanism of tumour-resistance to topo II poisons (Beck and Danks, 1991). The topo II catalytic inhibitor fostriecin is expected to have increased activity against tumour cells with low topo II levels and this was confirmed in in vitro studies (De Jong et al, 1991). […] Drug pharmacokinetics was analysed with high performance liquid chromatography with UV-detection. […] A metabolite, most probably dephosphorylated fostriecin, was detected in plasma and urine. […]

[4] = test system: murine leukaemia P388; design: method as in Leopold et al, 1984; details: ref Leopold et al, 1984; cited from earlier work

Q: Which “activity against L1210” value [1] does the source give for `C[C@@](O)(/C=C/[C@H]1CC=CC(=O)O1)[C@@H](C[C@@H](O)\C=C/C=C\C=C\CO)OP(=O)(O)O` [fostriecin] here?
A: The value was “active”.

Q: What about the “sensitivity of GLC4/VM20x relative to GLC4” value [2] of the same molecule?
A: Its value is 1.7 times.

Q: And the IC50 [3]?
A: The IC50 was 5.9 µM.

Q: And the “activity against P388” value [4]?
A: Its value is “active”.
